# Earlier results as cited in US20060051490A1, “Food component and processes for the preparation thereof” (priority 2003, published 2006).
# Settings: for solubility in 100 parts of water: in 100 parts of water at room temperature, approximate
miscibility with water,solubility in 100 parts of water,Compound
miscible with water in all proportions,–,CC(O)C(=O)O (stereo not shown) [lactic acid]
miscible with water in all proportions,–,"CC(=O)O [Acetic acid, acetic acid]"
–,~1.5 parts,"O=C(O)/C=C/C(=O)O [fumaric, fumaric acid]"
–,~150 parts,"O=C(O)CC(O)C(=O)O (stereo not shown) [malic, malic acid]"
